PubChem BioAssay AID248 (DTP/NCI, 2004)
Values joined by “and” are separate entries in the source; they are usually repeats but may differ in a detail not shown here. Equal values may be shown once. Inconclusive results and toxic doses are left out. No stated cut-off is given here; in the data, active means T/C of 150% or more; inactive means T/C below 125%.

System: L1210 leukemia ip in BDF1 mice, survival T/C
Assay: NCI In Vivo Anticancer Drug Screen. Data for tumor model L1210 Leukemia (intraperitoneal) in B6D2F1 (BDF1) mice
Details: endpoint: mean survival time, higher = longer survival
Outline: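 Read-out is survival time, reported as the treated-group measurement over the vehicle-control measurement.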

[1] = dose: 100.0 mg/kg/injection, schedule: Q04DX002 (ip), vehicle: saline with Tween-80
[2] = dose: 200.0 mg/kg/injection, schedule: Q04DX002 (ip), vehicle: saline with Tween-80
[3] = dose: 400.0 mg/kg/injection, schedule: Q04DX002 (ip), vehicle: saline with Tween-80
[4] = dose: 100.0 mg/kg/injection, schedule: Q04DX003 (ip), vehicle: Klucel (hydroxypropylcellulose) (HPC)
[5] = dose: 200.0 mg/kg/injection, schedule: Q04DX003 (ip), vehicle: Klucel (hydroxypropylcellulose) (HPC)
[6] = dose: 400.0 mg/kg/injection, schedule: Q04DX003 (ip), vehicle: Klucel (hydroxypropylcellulose) (HPC)
[7] = dose: 200.0 mg/kg/injection, schedule: Q01DX001 (ip), vehicle: Klucel (hydroxypropylcellulose) (HPC)
[8] = dose: 400.0 mg/kg/injection, schedule: Q01DX001 (ip), vehicle: Klucel (hydroxypropylcellulose) (HPC)
[9] = dose: 6.25 mg/kg/injection, schedule: Q01DX009 (ip), vehicle: water
[10] = dose: 12.5 mg/kg/injection, schedule: Q01DX009 (ip), vehicle: water
[11] = dose: 25.0 mg/kg/injection, schedule: Q01DX009 (ip), vehicle: water

Measured: T/C

O=c1[nH]c(=O)c2n[nH]nc2[nH]1
inactive: dose: 1.0 mg/kg/injection, schedule: Q01DX009 (ip), vehicle: saline 103 % of control | dose: 2.0 mg/kg/injection, schedule: Q01DX009 (ip), vehicle: saline 93 % of control | dose: 4.0 mg/kg/injection, schedule: Q01DX009 (ip), vehicle: saline 95 % of control | dose: 8.0 mg/kg/injection, schedule: Q01DX009 (ip), vehicle: saline 103 % of control | dose: 16.0 mg/kg/injection, schedule: Q01DX009 (ip), vehicle: saline 101 % of control | dose: 16.0 mg/kg/injection, schedule: Q01DX015 (ip), vehicle: carboxymethylcellulose (CMC) 88 % of control | dose: 75.0 mg/kg/injection, schedule: Q01DX009 (ip), vehicle: saline 110 % of control | dose: 100.0 mg/kg/injection, schedule: Q01DX001 (ip), vehicle: carboxymethylcellulose (CMC) 96 % of control | dose: 115.0 mg/kg/injection, schedule: Q01DX009 (ip), vehicle: saline 107 % of control | dose: 125.0 mg/kg/injection, schedule: Q01DX015 (ip), vehicle: carboxymethylcellulose (CMC) 92 % of control | dose: 170.0 mg/kg/injection, schedule: Q01DX009 (ip), vehicle: saline 98 % of control | dose: 200.0 mg/kg/injection, schedule: Q01DX001 (ip), vehicle: carboxymethylcellulose (CMC) 102 % of control | dose: 255.0 mg/kg/injection, schedule: Q01DX009 (ip), vehicle: saline 97 % of control | dose: 385.0 mg/kg/injection, schedule: Q01DX009 (ip), vehicle: saline 105 % of control | dose: 400.0 mg/kg/injection, schedule: Q01DX001 (ip), vehicle: carboxymethylcellulose (CMC) 91 % of control

CC(C)CCOC(=O)Nc1cccc(Cl)c1
inactive: dose: 75.0 mg/kg/injection, schedule: Q01DX009 (ip), vehicle: saline with Tween-80 113 % of control | [1] 93 % of control | dose: 150.0 mg/kg/injection, schedule: Q01DX009 (ip), vehicle: saline with Tween-80 103 % of control | [2] 86 % of control | dose: 300.0 mg/kg/injection, schedule: Q01DX009 (ip), vehicle: saline with Tween-80 98 % of control | [3] 89 % of control

CC(=O)n1cc(/C=C2\N=C(c3ccc([N+](=O)[O-])cc3)OC2=O)c2ccccc21
inactive: [1] 95 % of control | [2] 109 % of control | [3] 92 % of control

COc1ccc2c3c1OC1c4[nH]ncc4CC4C(C2)N(C)CCC314 (centres undefined)
inactive: [4] 104 % of control | [5] 93 % of control | [6] 106 % of control

c1ccc(N/N=C(\C(=N\Nc2ccccc2)c2ccccc2)c2ccccc2)cc1
inactive: [7] 87 % of control | [8] 86 % of control

O=Cc1c(Cl)c(Cl)c(C=O)c(Cl)c1Cl
inactive: dose: 50.0 mg/kg/injection, schedule: Q01DX001 (ip), vehicle: saline 103 % of control | dose: 100.0 mg/kg/injection, schedule: Q01DX001 (ip), vehicle: saline 103 % of control | dose: 100.0 mg/kg/injection, schedule: Q01DX009 (ip), vehicle: Klucel (hydroxypropylcellulose) (HPC) 107 % of control | [4] 102 % of control | dose: 200.0 mg/kg/injection, schedule: Q01DX001 (ip), vehicle: saline 100 % of control | dose: 200.0 mg/kg/injection, schedule: Q01DX009 (ip), vehicle: Klucel (hydroxypropylcellulose) (HPC) 115 % of control | [5] 101 % of control | dose: 400.0 mg/kg/injection, schedule: Q01DX001 (ip), vehicle: saline 105 % of control | dose: 400.0 mg/kg/injection, schedule: Q01DX009 (ip), vehicle: Klucel (hydroxypropylcellulose) (HPC) 103 % of control | [6] 98 % of control

CCCc1nnn(S(=O)(=O)c2ccc([N+](=O)[O-])cc2)c1CCC
inactive: dose: 177.0 mg/kg/injection, schedule: Q01DX001 (ip), vehicle: other 88 % of control | dose: 266.0 mg/kg/injection, schedule: Q01DX001 (ip), vehicle: other 91 % of control | dose: 400.0 mg/kg/injection, schedule: Q01DX001 (ip), vehicle: other 96 % of control | dose: 600.0 mg/kg/injection, schedule: Q01DX001 (ip), vehicle: other 88 % of control

C[n+]1cc2ccccc2c2ccccc21
inactive: [9] 104 % of control | dose: 12.5 mg/kg/injection, schedule: Q01DX009 (ip), vehicle: saline 92 % of control | [10] 120 % of control | dose: 12.5 mg/kg/injection, schedule: Q04DX003 (ip), vehicle: saline 101 % of control | dose: 12.5 mg/kg/injection, schedule: Q04DX003 (ip), vehicle: water 98 % of control | dose: 25.0 mg/kg/injection, schedule: Q01DX009 (ip), vehicle: saline 112 % of control | [11] 115 % of control | dose: 25.0 mg/kg/injection, schedule: Q04DX003 (ip), vehicle: saline 107 % of control | dose: 25.0 mg/kg/injection, schedule: Q04DX003 (ip), vehicle: water 107 % of control | dose: 50.0 mg/kg/injection, schedule: Q01DX009 (ip), vehicle: saline 95 % of control | dose: 50.0 mg/kg/injection, schedule: Q01DX009 (ip), vehicle: water 93 % of control | dose: 50.0 mg/kg/injection, schedule: Q04DX003 (ip), vehicle: saline 107 % of control

Cc1ccc2c(ccc3ccc4ccccc4c32)c1
inactive: [4] 90 % of control | [5] 89 % of control | [6] 93 % of control

[Br][Sn]([Br])([CH]1CCCCC1)[CH]1CCCCC1
inactive: dose: 9.38 mg/kg/injection, schedule: Q01DX001 (ip), vehicle: other 91 % of control | dose: 18.75 mg/kg/injection, schedule: Q01DX001 (ip), vehicle: other 93 % of control

CCOC(=O)N/N=C/c1ccccc1
inactive: [7] 108 % of control | [8] 118 % of control

COc1ccc(OC)c(NC(=S)N/N=C(/C)c2cc(Cl)c(C)cc2O)c1
inactive: dose: 12.5 mg/kg/injection, schedule: Q04DX002 (ip), vehicle: Klucel (hydroxypropylcellulose) (HPC) 112 % of control | dose: 25.0 mg/kg/injection, schedule: Q04DX002 (ip), vehicle: Klucel (hydroxypropylcellulose) (HPC) 97 % of control | dose: 50.0 mg/kg/injection, schedule: Q04DX002 (ip), vehicle: Klucel (hydroxypropylcellulose) (HPC) 97 % of control

CSc1ccc(-c2nc3ncnc(N)c3[nH]2)cc1
inactive: dose: 25.0 mg/kg/injection, schedule: Q01DX001 (ip), vehicle: gum acacia 95 % of control | dose: 50.0 mg/kg/injection, schedule: Q01DX001 (ip), vehicle: gum acacia 93 % of control

O=S(=O)(OCC#CCOS(=O)(=O)c1ccc(Cl)c(Cl)c1)c1ccc(Cl)c(Cl)c1
inactive: dose: 12.5 mg/kg/injection, schedule: Q01DX009 (ip), vehicle: saline with Tween-80 90 % of control | dose: 25.0 mg/kg/injection, schedule: Q01DX009 (ip), vehicle: saline with Tween-80 90 % of control

CCN(Cc1ccc(Cl)c(Cl)c1)c1ccc2nc(N)nc(N)c2c1C
inactive: dose: 1.56 mg/kg/injection, schedule: Q01DX009 (ip), vehicle: water 110 % of control | dose: 3.12 mg/kg/injection, schedule: Q01DX009 (ip), vehicle: water 103 % of control and 110 % of control | [9] 116 % of control and 124 % of control | [10] 121 % of control | [11] 110 % of control
